Test results: US20130164384A1, “METHODS OF TREATING BOWEL DISEASES BY ADMINISTERING A BOWEL CLEANSER AND AN ANTIBIOTIC” (Salix Pharmaceuticals, Ltd., priority 2008, published 2013)

System: subjects with dIBS
Assay: Study of three rifaximin doses in subjects with dIBS: adequate relief of IBS symptoms and bloating
Assay type: in vivo, human
Settings: for Treatment effect (Bloating) / Treatment effect (IBS Sx): matches RFX 550 2 w minus PBO success rate; for Adequate Relief of Bloating: Failure / Adequate Relief of Bloating: Success / Adequate Relief of IBS Symptoms: Failure / Adequate Relief of IBS Symptoms: Success: end of treatment phase
Procedure: This example relates to a study of three rifaximin doses in subjects with dIBS. Subjects were randomized to receive daily BID doses of rifaximin 275 mg, 550 mg, or 1100 mg for 14 days. A fifth group of subjects received rifaximin 550 mg BID for a period of 28 days. Subjects were questioned on the relief of overall IBS symptoms and bloating. […] The analyses defined success as a “yes” response to questions regarding adequate relief of SGA or IBS-B in at least 2 out of the final 3 weeks of the double-blind treatment period.
Baseline severity was determined using 7-point Lickert scales during screening for Abdominal Pain/Discomfort and Bloating, and the number, type (normal, hard, loose) and urgency of bowel movements.
Duration of effect was assessed in a 12 week follow-up period. Subjects that responded in the 4 week double-blind treatment period were followed for an additional 3 months. Fifty-three (53) subjects from the 550 mg 2 w and 59 subjects from the placebo-treated groups participated in this study phase.
Subjects recorded the following information on dIBS symptoms daily throughout the duration of the study: • Number of normal stools/day; • Number of hard and lumpy stools/day; • Number of loose or watery stools/day; • Number of loose or watery stools/day with the symptom of urgency; • How bothersome is abdominal pain and discomfort? [7-point response scale: 0 (not at all) to 6 (a very great deal)]; • How bothersome is bloating? [(7-point response scale: 0 (not at all) to 6 (a very great deal)].
Weekly summary variables were computed by averaging the recorded values over all pre-treatment days or over the seven days preceding the time point of interest for post-treatment assessments. For example, baseline included Days −10 to 0, Week 1 included Days 1 to 7, Week 2 included Days 8 to 14, and so forth through Week 16. Changes from baseline variables were computed for each weekly summary score.

[1] = 550 mg BID for 2 weeks, success = yes in at least 2 of final 3 weeks
[2] = GI Cleanser Prior to Rifaximin Administration: N
[3] = GI Cleanser Prior to Rifaximin Administration: Y
[4] = RFX 275 2 w (275 mg BID 14 days), Had a Screening Colonoscopy: No
[5] = RFX 275 2 w (275 mg BID 14 days), Had a Screening Colonoscopy: Yes
[6] = RFX 275 2 w (275 mg BID 14 days), Screening Colonoscopy <=26 Days
[7] = RFX 275 2 w (275 mg BID 14 days), Screening Colonoscopy >26 Days
[8] = RFX 275 2 w (275 mg BID 14 days), had screening colonoscopy, Average Abdominal Pain Discomfort Score at Baseline <=4
[9] = RFX 275 2 w (275 mg BID 14 days), had screening colonoscopy, Average Abdominal Pain Discomfort Score at Baseline >4
[10] = RFX 275 2 w (275 mg BID 14 days), had screening colonoscopy, Average Bloating Discomfort Score at Baseline <=4
[11] = RFX 275 2 w (275 mg BID 14 days), had screening colonoscopy, Average Bloating Discomfort Score at Baseline >4
[12] = RFX 550 2 w (550 mg BID 14 days), Had a Screening Colonoscopy: No
[13] = RFX 550 2 w (550 mg BID 14 days), Had a Screening Colonoscopy: Yes
[14] = RFX 550 2 w (550 mg BID 14 days), Screening Colonoscopy <=26 Days
[15] = RFX 550 2 w (550 mg BID 14 days), Screening Colonoscopy >26 Days
[16] = RFX 550 2 w (550 mg BID 14 days), had screening colonoscopy, Average Abdominal Pain Discomfort Score at Baseline <=4
[17] = RFX 550 2 w (550 mg BID 14 days), had screening colonoscopy, Average Abdominal Pain Discomfort Score at Baseline >4
[18] = RFX 550 2 w (550 mg BID 14 days), had screening colonoscopy, Average Bloating Discomfort Score at Baseline <=4

## COC1/C=C/OC2(C)Oc3c(C)c(O)c4c(O)c(c5c(nc6cc(C)ccn65)c4c3C2=O)NC(=O)/C(C)=C\C=C\C(C)C(O)C(C)C(O)C(C)C(OC(C)=O)C1C [RFX, (2S,16Z,18E,20S,21S,22R,23R,24R,25S,26S,27S,28E)-5,6,21,23,25 Pentahydroxy-27-methoxy-2,4,11,16,20,22,24,26-octamethyl-2,7-(epoxypentadeca-(1,11,13)trienimino)benzofuro(4,5-e)pyrido(1,2,-a)benzimidazole-1,15(2H)-dione,25-acetate]
550 mg BID 2 w responders, 12 week follow-up period
  Duration of effect (maintaining symptom relief) versus placebo: better chance of maintaining symptom relief
[1]
  Adequate relief of IBS related symptoms (SGA) compared to placebo: statistically significant relief
  Adequate relief of IBS-related bloating (IBS-B) compared to placebo: statistically significant relief
[2]
  Treatment effect (Bloating): −0.9%
  Treatment effect (IBS Sx): 4.7%
[3]
  Treatment effect (Bloating): 13.8%
  Treatment effect (IBS Sx): 11.6%
[4]
  Adequate Relief of Bloating: Failure: 36 (67.9%) n (%)
  Adequate Relief of Bloating: Success: 17 (32.1%) n (%)
  Adequate Relief of IBS Symptoms: Failure: 32 (60.4%) n (%)
  Adequate Relief of IBS Symptoms: Success: 21 (39.6%) n (%)
[5]
  Adequate Relief of Bloating: Failure: 24 (57.1%) n (%)
  Adequate Relief of Bloating: Success: 18 (42.9%) n (%)
  Adequate Relief of IBS Symptoms: Failure: 23 (54.8%) n (%)
  Adequate Relief of IBS Symptoms: Success: 19 (45.2%) n (%)
[6]
  Adequate Relief of Bloating: Failure: 10 (55.6%) n (%)
  Adequate Relief of Bloating: Success: 8 (44.4%) n (%)
  Adequate Relief of IBS Symptoms: Failure: 11 (61.1%) n (%)
  Adequate Relief of IBS Symptoms: Success: 7 (38.9%) n (%)
[7]
  Adequate Relief of Bloating: Failure: 14 (58.3%) n (%)
  Adequate Relief of Bloating: Success: 10 (41.7%) n (%)
  Adequate Relief of IBS Symptoms: Failure: 12 (50.0%) n (%)
  Adequate Relief of IBS Symptoms: Success: 12 (50.0%) n (%)
[8]
  Adequate Relief of Bloating: Failure: 22 (59.5%) n (%)
  Adequate Relief of Bloating: Success: 15 (40.5%) n (%)
  Adequate Relief of IBS Symptoms: Failure: 21 (56.8%) n (%)
  Adequate Relief of IBS Symptoms: Success: 16 (43.2%) n (%)
[9]
  Adequate Relief of Bloating: Failure: 2 (40.0%) n (%)
  Adequate Relief of Bloating: Success: 3 (60.0%) n (%)
  Adequate Relief of IBS Symptoms: Failure: 2 (40.0%) n (%)
  Adequate Relief of IBS Symptoms: Success: 3 (60.0%) n (%)
[10]
  Adequate Relief of Bloating: Failure: 22 (59.5%) n (%)
  Adequate Relief of Bloating: Success: 15 (40.5%) n (%)
  Adequate Relief of IBS Symptoms: Failure: 21 (56.8%) n (%)
  Adequate Relief of IBS Symptoms: Success: 16 (43.2%) n (%)
[11]
  Adequate Relief of Bloating: Failure: 2 (40.0%) n (%)
  Adequate Relief of Bloating: Success: 3 (60.0%) n (%)
  Adequate Relief of IBS Symptoms: Failure: 2 (40.0%) n (%)
  Adequate Relief of IBS Symptoms: Success: 3 (60.0%) n (%)
[12]
  Adequate Relief of Bloating: Failure: 59 (62.1%) n (%)
  Adequate Relief of Bloating: Success: 36 (37.9%) n (%)
  Adequate Relief of IBS Symptoms: Failure: 49 (51.6%) n (%)
  Adequate Relief of IBS Symptoms: Success: 46 (48.4%) n (%)
[13]
  Adequate Relief of Bloating: Failure: 44 (45.8%) n (%)
  Adequate Relief of Bloating: Success: 52 (54.2%) n (%)
  Adequate Relief of IBS Symptoms: Failure: 42 (43.8%) n (%)
  Adequate Relief of IBS Symptoms: Success: 54 (56.3%) n (%)
[14]
  Adequate Relief of Bloating: Failure: 18 (40.9%) n (%)
  Adequate Relief of Bloating: Success: 26 (59.1%) n (%)
  Adequate Relief of IBS Symptoms: Failure: 20 (45.5%) n (%)
  Adequate Relief of IBS Symptoms: Success: 24 (54.5%) n (%)
[15]
  Adequate Relief of Bloating: Failure: 26 (50.0%) n (%)
  Adequate Relief of Bloating: Success: 26 (50.0%) n (%)
  Adequate Relief of IBS Symptoms: Failure: 22 (42.3%) n (%)
  Adequate Relief of IBS Symptoms: Success: 30 (57.7%) n (%)
[16]
  Adequate Relief of Bloating: Failure: 38 (45.8%) n (%)
  Adequate Relief of Bloating: Success: 45 (54.2%) n (%)
  Adequate Relief of IBS Symptoms: Failure: 37 (44.6%) n (%)
  Adequate Relief of IBS Symptoms: Success: 46 (55.4%) n (%)
[17]
  Adequate Relief of Bloating: Failure: 6 (46.2%) n (%)
  Adequate Relief of Bloating: Success: 7 (53.8%) n (%)
  Adequate Relief of IBS Symptoms: Failure: 5 (38.5%) n (%)
  Adequate Relief of IBS Symptoms: Success: 8 (61.5%) n (%)
[18]
  Adequate Relief of Bloating: Failure: 36 (45.0%) n (%)
  Adequate Relief of Bloating: Success: 44 (55.0%) n (%)
  Adequate Relief of IBS Symptoms: Failure: 34 (42.5%) n (%)
  Adequate Relief of IBS Symptoms: Success: 46 (57.5%) n (%)
RFX 550 2 w (550 mg BID 14 days), had screening colonoscopy, Average Bloating Discomfort Score at Baseline >4
  Adequate Relief of Bloating: Failure: 8 (50.0%) n (%)
